These results are taken from patent publication US9040307B2, “Fluorescent pH detector system and related methods” (Blood Cell Storage, Inc., priority 2011, dated 2015).

Read-outs that look alike come from different tables or passages of the source.

The conditions of data set [1]: cited from earlier work.
A short description of data set [2]: Photobleaching degradation under fluorescent light. In kind it is physicochemical. As for the experimental part: A photobleaching degradation curve for EBIO-3 and BCSI-3 was constructed utilizing fluorescent light exposure and measuring the absorption at 530 nm to quantify functional dye. Identical concentrations of both dyes, 7.9 μM, were exposed to continuous fluorescent light (34 W Philips Hg bulb) from a distance of 16 inches for 3 days. At 73.5 hours the two dyes had degraded 64% and the degradation is within 5.6% of each other.

Data set [3] in a line: Absorbance and emission spectra versus pH of SNAFL analogs in solution.
Method: Absorbance was measured at pH 6, 8, and 10: acid (pH 6) gave two bands of similar absorbance; pH 10 gave a single λmax (base). The emission spectra were determined by excitation at the absorbance λmax (base). The wavelength where emission spectra crossed is reported as λiso. The emission λmax was measured at pH 10. pKa was determined from fluorescence emission spectra.
Fluorescence versus pH of various SNAFL free acids were compared using an Ocean Optics USB2000 fiber optic spectrometer and a tungsten halogen light source (part number HL-2000 FHSA). The light source was equipped with a linear variable filter that allowed the wavelength and shape of the excitation beam to be adjusted. The excitation wavelength was adjusted by using a blank cuvette to the absorbance max of the fluorophore (see Table 1). A cuvette holder (part number CUV-FL-DA) was directly attached to the light source and a fiber optic cable directed emitted light to the spectrometer. Excitation conditions are reported for each fluorescence spectrum (3000 msec irradiation at the indicated wavelength). Spectral data were collected on a personal computer using the Ocean Optics software and overlays of different spectra were captured.
SNAFL-1 was purchased as the free carboxylic acid from Molecular Probes in a 1 mg vial. 0.3 mL of isopropyl alcohol and 0.7 mL of water was added to make a 1 mg/mL solution. A molecular weight (MW) of 426 for SNAFL-1 was used to calculate molarity (SNAFL-1=2.35 mM). 4.25 uL of this solution was diluted to 1 mL with various 50 mM phosphate buffers to give 10 micromolar solutions with pH 6-10. 10 micromolar solutions of SNAFL-2 (MW=460) were prepared in a similar fashion. EBIO-1 (MW=523), EBIO-2 (MW=627), and EBIO-3 (MW=489) were obtained as bulk compounds from Epoch Biosciences. 1.6 mg of each solid powder was carefully weighed out and dissolved in 3.2 mL of 40% isopropyl alcohol to give 0.5 mg/mL solutions. Emission spectra were obtained for the various SNAFL and EBIO compounds at pH 6.0, 6.2, 6.4, 6.6, 6.8, 7.0, 8.0 and 10.0. […]
Data set [4] in a line: Absorbance and fluorescence of fluorophore/HSA conjugates in solution. Format: physicochemical. Particulars: pH 7.4; free acid 10 micromolar, conjugates 1 micromolar.
From the text: A 10 micromolar solution of SNAFL-1 acid (obtained from Molecular Probes) at pH 7 was used as a standard to more accurately determine the average loading of SNAFL-1 per each HSA conjugate preparation.
Excitation conditions are reported for each fluorescence spectrum (3000 msec irradiation at the indicated wavelength).
The Ocean Optics halogen light source was equipped with a 532 nm interference filter (Edmund Optics, Barrington, N.J.) and this allowed the fluorescent isosbestic point at 572 nm for pH 6-7 to be detected.
Data set [5] in a line: pKa determination from fluorescence emission spectra of SNAFL free acids. Format: physicochemical. Particulars: 10 μM free acid, 50 mM phosphate buffers. The source says: The pH at which two molecular species (tautomers) are equally represented is defined as the pKa. There are many variables that can affect pKa and methods for measurement are difficult since the structures have overlapping absorbance. Therefore direct comparisons from the literature can vary slightly. The calculations contained herein are based on the assumption that, at pH 10, only the trianionic naphtholate structure is present. The intensity of fluorescence at the emission maxima is divided by 2, and pH of the intersecting pH curve is calculated by interpolation between the nearest 2 curves.

[6] abbreviates: Lee et al. (1989) Cytometry 10, 151-164.

Method for physchem: The pKa of BCSI-3 was determined by an absorbance assay with controlled pH buffers.

For the compound `O=S1(=O)OC2(c3ccccc31)c1ccc3cc(O)ccc3c1Oc1c2ccc2cc(O)ccc12` [VITABLUE], the pKa in data set [1] (setting [6]) is given as 7.56.
As for Carboxynaphthofluorescein [CNF], the pKa is listed as 7.99 in data set [1] (setting [6]) and 7.62 in data set [1] (published values, free or immobilized dye).
As for `O=C(O)CCc1cc2c(-c3ccccc3C(=O)O)c3ccc4cc(O)c(Cl)cc4c3oc-2cc1=O` [EBIO-3], the “degraded (reduction in absorbance at 530 nm)” value in data set [2] (73.5 hours continuous fluorescent light, 7.9 μM, pH 7.4 PBS) stood at 64%. Moreover, the “absorption at 530 nm of control set” value in data set [2] (protected from light) is reported as “unchanged”. In data set [3] (10 μM, pH 10), the “Absorbance λmax (base)” value was 534 nm. The “Emission λmax (base)” value in data set [3] (pH 10, excitation at absorbance λmax (base)) was 610 nm. Moreover, in data set [3] (wavelength where emission spectra crossed, excitation at absorbance λmax (base)), the “Emission λiso” value is reported as 560 nm. In data set [4], the absorbance maximum is 534 nm. In addition, the values for the pKa (in “physchem”; in data set [5]) were 6.61 and 6.6, respectively.

By pKa is commonly meant the negative logarithm of the acid dissociation constant.
